Assay results taken from article PMC9164233 (ACS Organic & Inorganic Au, 2022).

Columns and labels:
Experiment in all cases: Cell viability assay
MCF10A cells = format: cell-based; settings: Homo sapiens, MCF-10A, 72 h, read-out: Antiproliferative activity IC50, MCF10A
[1] = test system: HMLER CD24^high/CD44^low cells; format: cell-based; settings: Homo sapiens, Epithelial cell, 72 h, read-out: Antiproliferative activity IC50, HMLER CD24^high/CD44^low
[2] = test system: HMLER CD24^low/CD44^high cells; format: cell-based, human; settings: 72 h

CC[C@@H](C(=O)[C@@H](C)[C@@H](O)[C@H](C)[C@@H]1O[C@@H]([C@@H](CC)C(=O)O)CC[C@@H]1C)[C@H]1O[C@]2(C=C[C@@H](O)[C@]3(CC[C@@](C)([C@H]4CC[C@](O)(CC)[C@H](C)O4)O3)O2)[C@H](C)C[C@@H]1C [Sal, salinomycin]
IC50 (MCF10A cells): 1130 ± 140 nM
IC50 [1]: 4.36 ± 0.5 µM
SI (HMLER) = IC50(HMLER CD24^high/CD44^low)/IC50(HMLER CD24^low/CD44^high) ([2]; selectivity for the mesenchymal state): 3.1
IC50 ([2]; Homo sapiens, read-out: Antiproliferative activity IC50, HMLER CD24^low/CD44^high): 1390 ± 100 nM
